The values below come from patent US20220409694A1, “POLYPEPTIDE, AND PREPARATION METHOD THEREFOR AND USE THEREOF” (SHANXI JINBO BIO-PHARMACEUTICAL CO., LTD., priority 2020, published 2022).

pIC50: −log10 of the molar value.

Assay [1] deals with SARS-CoV-2 live virus (nCoV-SH01 strain). In words: Inhibition of SARS-CoV-2 live virus on human intestinal cell line CaCO2 (viral RNA in supernatant). The class given is cell-based. The settings on record: CaCO2 cells, 48 hours, read-out: half inhibitory concentration, SARS-CoV-2 live virus.
For assay [2] the test system is unchanged. Also noted: species or system transgenic human-ACE2 mice. The settings on record: in vivo.
For a further assay, the system named is Rs3367-CoV pseudovirus. Particulars: 72 h.
In another assay the test system is WIV1-CoV pseudovirus. The settings on record: 72 h.
Another assay relates to 2019-nCoV pseudovirus. The settings on record: for pIC50: 72 h.
Assay [3] deals with T1, 2019-HR1P (derived from the HR1 region of 2019-nCoV) (Severe acute respiratory syndrome coronavirus 2, UniProt P0DTC2). Nature of the assay: Circular dichroism spectroscopy of polypeptide mixed with 2019-HR1P. The class given is binding. The settings on record: 10 μM, phosphate buffer pH 7.2, 4° C.
For assay [4], the system named is cell-cell fusion mediated by the S protein of 2019-nCoV. The class given is cell-based.
Assay [5] addresses T1, 2019-HR1P (derived from the HR1 region of 2019-nCoV). In words: Native PAGE (N-PAGE) of polypeptide mixed with 2019-HR1P. The class given is binding. The settings on record: 30 μM each, 37° C. for 30 minutes.
The subject of a further assay is SARS-CoV pseudovirus. The settings on record: 72 h.
A further assay concerns 2019-nCoV live virus. The settings on record: for pIC50: 72 h; for inhibitory activity relative to EK1, 2019-nCoV live virus: fold higher than EK1.

As for `CC[C@H](C)[C@H](NC(=O)[C@H](C)NC(=O)[C@H](CCC(=O)O)NC(=O)[C@H](CCC(=O)O)NC(=O)[C@H](CC(C)C)NC(=O)[C@H](CCCCN)NC(=O)[C@H](CCCCN)NC(=O)[C@H](CCSC)NC(=O)[C@H](CCC(=O)O)NC(=O)[C@H](Cc1ccc(O)cc1)NC(=O)[C@H](CCC(=O)O)NC(=O)[C@H](CC(C)C)NC(=O)[C@H](CC(=O)O)NC(=O)[C@H](CC(C)C)NC(=O)[C@H](Cc1ccccc1)NC(=O)[C@@H](NC(=O)[C@@H](NC(=O)[C@H](CC(N)=O)NC(=O)[C@@H](NC(=O)[C@H](CCC(N)=O)NC(=O)[C@H](CC(=O)O)NC(=O)[C@H](CC(C)C)NC(=O)[C@@H](N)CO)[C@@H](C)CC)C(C)C)[C@@H](C)O)C(=O)N[C@@H](CCCCN)C(=O)N[C@@H](CCCCN)C(=O)N[C@@H](CC(C)C)C(=O)N[C@@H](CCC(=O)O)C(=O)N[C@@H](CCC(=O)O)C(=O)N[C@@H](CO)C(=O)N[C@@H](Cc1ccc(O)cc1)C(=O)N[C@H](C(=O)N[C@@H](CC(=O)O)C(=O)N[C@@H](CC(C)C)C(=O)N[C@@H](CCCCN)C(=O)N[C@@H](CCC(=O)O)C(=O)N[C@@H](CC(C)C)C(=O)O)[C@@H](C)CC` [EK1, reference compound], the pIC50 was 6.24 in [1]; 5.40 in the assay on Rs3367-CoV pseudovirus; 5.53 in the assay with WIV1-CoV pseudovirus; 5.60 in the assay with 2019-nCoV pseudovirus; 5.72 with SARS-CoV pseudovirus. Further, the “SARS-CoV-2 viral load in the intestine” value in [2] is given as “significantly reduce”. Also, in assay [2], the “SARS-CoV-2 viral load in the lung” value is reported as “significantly reduce”. Further, in assay [3], the “secondary structure of mixture with 2019-HR1P by circular dichroism” value is reported as “formed a 6-HB complex”. Further, the “inhibitory effect on cell-cell fusion mediated by the S protein of 2019-nCoV (in words)” value (“inhibitory effect” for short) in [4] is on record as “very good inhibitory effect”. In addition, in assay [5], the “complex formation with 2019-HR1P in N-PAGE” value is recorded as “formation of a six-helix bundle complex”.

For the molecule `CC[C@H](C)[C@H](NC(=O)[C@H](C)NC(=O)[C@H](CCC(=O)O)NC(=O)[C@H](CCC(=O)O)NC(=O)[C@H](CC(C)C)NC(=O)[C@H](CCCCN)NC(=O)[C@H](CCCCN)NC(=O)[C@H](CCSC)NC(=O)[C@H](CCC(=O)O)NC(=O)[C@H](Cc1ccc(O)cc1)NC(=O)[C@H](CCC(=O)O)NC(=O)[C@H](CC(C)C)NC(=O)[C@H](CC(=O)O)NC(=O)[C@H](CC(C)C)NC(=O)[C@H](Cc1ccccc1)NC(=O)[C@@H](NC(=O)[C@@H](NC(=O)[C@H](CC(N)=O)NC(=O)[C@@H](NC(=O)[C@H](CCC(N)=O)NC(=O)[C@H](CC(=O)O)NC(=O)[C@H](CC(C)C)NC(=O)[C@@H](N)CO)[C@@H](C)CC)C(C)C)[C@@H](C)O)C(=O)N[C@@H](CCCCN)C(=O)N[C@@H](CCCCN)C(=O)N[C@@H](CC(C)C)C(=O)N[C@@H](CCC(=O)O)C(=O)N[C@@H](CCC(=O)O)C(=O)N[C@@H](CO)C(=O)N[C@@H](Cc1ccc(O)cc1)C(=O)N[C@H](C(=O)N[C@@H](CC(=O)O)C(=O)N[C@@H](CC(C)C)C(=O)N[C@@H](CCCCN)C(=O)N[C@@H](CCC(=O)O)C(=O)N[C@@H](CC(C)C)C(=O)NCC(=O)N[C@@H](CO)C(=O)NCC(=O)N[C@@H](CO)C(=O)NCC(=O)NCCOCCOCCOCCOCCC(=O)N[C@@H](CSCC(=O)O[C@H]1CC[C@@]2(C)C(=CC[C@H]3[C@@H]4CC[C@H]([C@H](C)CCCC(C)C)[C@@]4(C)CC[C@@H]32)C1)C(=O)O)[C@@H](C)CC` [EK1-chol], the pIC50 in assay [1] was 8.26; in the assay on Rs3367-CoV pseudovirus, 7.52; in the assay with WIV1-CoV pseudovirus, 7.40; in the assay on 2019-nCoV pseudovirus, 7.70; with SARS-CoV pseudovirus, 8.00; with 2019-nCoV live virus, 7.44. For the same molecule, the “SARS-CoV-2 viral titer in the intestine” value in [2] is given as “significantly reduce”. Besides, the “SARS-CoV-2 viral titer in the lung” value in [2] was “significantly reduce”. Besides, in [4], the “inhibitory effect” value is on record as “very good inhibitory effect”. Besides, in the assay with 2019-nCoV live virus, the “inhibitory activity relative to EK1, 2019-nCoV live virus” value is reported as 67 times.

Turning to `CCCCCCCCCCCCCCCC(=O)NCCCC[C@H](NC(=O)CCOCCOCCOCCOCCNC(=O)CNC(=O)[C@H](CO)NC(=O)CNC(=O)[C@H](CC(C)C)NC(=O)[C@H](CCC(=O)O)NC(=O)[C@H](CCCCN)NC(=O)[C@H](CC(C)C)NC(=O)[C@H](CC(=O)O)NC(=O)[C@@H](NC(=O)[C@H](Cc1ccc(O)cc1)NC(=O)[C@H](CO)NC(=O)[C@H](CCC(=O)O)NC(=O)[C@H](CCC(=O)O)NC(=O)[C@H](CC(C)C)NC(=O)[C@H](CCCCN)NC(=O)[C@H](CCCCN)NC(=O)[C@@H](NC(=O)[C@H](C)NC(=O)[C@H](CCC(=O)O)NC(=O)[C@H](CCC(=O)O)NC(=O)[C@H](CC(C)C)NC(=O)[C@H](CCCCN)NC(=O)[C@H](CCCCN)NC(=O)[C@H](CCSC)NC(=O)[C@H](CCC(=O)O)NC(=O)[C@H](Cc1ccc(O)cc1)NC(=O)[C@H](CCC(=O)O)NC(=O)[C@H](CC(C)C)NC(=O)[C@H](CC(=O)O)NC(=O)[C@H](CC(C)C)NC(=O)[C@H](Cc1ccccc1)NC(=O)[C@@H](NC(=O)[C@@H](NC(=O)[C@H](CC(N)=O)NC(=O)[C@@H](NC(=O)[C@H](CCC(N)=O)NC(=O)[C@H](CC(=O)O)NC(=O)[C@H](CC(C)C)NC(=O)[C@@H](N)CO)[C@@H](C)CC)C(C)C)[C@@H](C)O)[C@@H](C)CC)[C@@H](C)CC)C(=O)O` [EK1-plam], the pIC50 with Rs3367-CoV pseudovirus is 6.89; in the assay on WIV1-CoV pseudovirus, 7.00; in the assay on 2019-nCoV pseudovirus, 6.44; in the assay with SARS-CoV pseudovirus, 6.77; with 2019-nCoV live virus it was 6.36. Besides, the “inhibitory effect” value in assay [4] is reported as “very good inhibitory effect”. In the assay with 2019-nCoV live virus, the “inhibitory activity relative to EK1, 2019-nCoV live virus” value worked out at 5 times.

Consider “ANQFNSAIGKIQDSLSSTASALGKLQDVVNQNAQALNTLVKQ (SEQ ID NO. 3) [2019-HR1P, reference compound]”, for which, in the assay with 2019-nCoV pseudovirus, the “activity in pseudovirus inhibition experiments (in words)” value is reported as “no activity”. In addition, in assay [4], the “inhibitory effect” value is recorded as “no activity”.
